Tests used:
HTT mRNA = experiment: Blood HTT mRNA in infants with Type 1 SMA (droplet digital PCR); format: in vivo, human
Description: The effect of branaplam on the expression levels of Huntingtin (HTT) mRNA was assessed in infants with Type I spinal muscular atrophy who were enrolled in an open-label multi-part first-in-human proof of concept study of oral branaplam.
Patients were dosed once weekly with branaplam. The branaplam doses were escalated in subsequent cohorts until MTD was determined or when PK results confirmed that the MTD could not be reached due to a potential pharmacokinetic exposure plateau at higher doses. […]
Levels of HTT mRNA and novel-exon-included HTT mRNA were then quantified by polymerase chain reaction (PCR) using the Bio-Rad QX200 droplet digital PCR system. […]
For HTT mRNA levels, two independent predesigned quantitative PCR assays (Assay Hs.PT.58.14833829 with forward primer 5′-[…]-3′ (SEQ ID NO: 10), reverse primer 5′-[…]-3′ (SEQ ID NO: 11) and probe 5′-56-FAM/CGCTTCCAC/ZEN/TTGTCTTCATTCTCCTTGT/3IABKFQ-3′ (SEQ ID NO: 12) and assay Hs.PT.58.25550542 with forward primer 5′-[…]-3′ (SEQ ID NO: 13), reverse primer 5′-CACCACTCTGGCTTCACAA-3′ (SEQ ID NO: 14) and probe 5′-56-FAM/CCCGACAGC/ZEN/GAGTCAGTGATTGTT/3IABKFQ-3′ (SEQ ID NO: 15), purchased from Integrated DNA Technologies, Inc.) were used. […]

Huntingtin protein = experiment: In vitro evaluation in SH-SY5Y cells: Huntingtin protein by Western blot; format: cell-based, human; details: 48 hours
Description: Cultured human neuroblastoma (SH-SY5Y cell line) cells were treated at doses ranging from 5 nM-125 nM for 24 hours (for transcript evaluation) or 48 hours (for protein evaluation). RNA was quantified by Nanodrop 2000 (Thermo Scientific). cDNAs were synthesized from 140-400 ng RNA using Maxima First strand cDNA synthesis kit using a mix of oligo dT and random hexamers (Thermo Scientific) in 20 uL reaction at 25° C. for 10 min, 50° C. for 15 min then 85° C. for 5 min. Quantitative PCR was performed using Taqman Fast Advanced master mix (Thermo Scientific) in 20 uL with 4 uL of cDNA reaction and primers specific for each genes. The PCR steps were as follows: 95° C. for 20 sec then 40 cycles of 95° C. for 1 sec, 55° C. for 20 sec. […] Relative quantification of gene expression was performed using 2-AACT method. Fold changes in the mRNA expression level was calculated following normalization to […] glucuronidase beta (Gusb) as an endogenous reference (FIGS. 2a and 2b).
For protein analysis, cells were lysed in RIPA buffer with protease and phosphatase inhibitor (Thermo Scientific). […] Total protein concentration was quantified using the BCA protein Assay (Thermo Scientific). […] Protein bands were quantified by Image J.

With `CC1(C)CC(Oc2ccc(-c3ccc(-c4cn[nH]c4)cc3O)nn2)CC(C)(C)N1` [Compound 18, 5-(1H-pyrazol-4-yl)-2-(6-((2,2,6,6-tetramethylpiperidin-4-yl)oxy)pyridazin-3-yl)phenol] the “inclusion of the novel exon into blood HTT mRNA” value (HTT mRNA; infants with Type 1 SMA, once weekly oral, up to 1450 study days, listed as branaplam) was “induced and elevated”, the “blood HTT mRNA levels between study days 904 and 1450” value (HTT mRNA; only 1-5 long-term treated subjects) was “returned to values around baseline levels” and the “reduction of normal Huntingtin protein” value (Huntingtin protein; 5 nM-125 nM, Western blot) was 50-70%. The EC50 (Huntingtin protein; read-out: EC50 for HTT protein lowering) was 10 to 25 nM.

— US20240216369A1, “THE USE OF A SPLICING MODULATOR FOR A TREATMENT SLOWING PROGRESSION OF HUNTINGTON'S DISEASE” (Novartis AG, priority 2019, published 2024)
